Assay results: ChEMBL document CHEMBL5465560, “Selectivity Literature for EUbOPEN Chemogenomic Library” (2024)

What was measured:
CDK1/Cyclin A = CDK1/Cyclin A (Homo sapiens, UniProt P06493+P20248+P78396); assay: Selectivity interaction (Enzymatic assay (Reaction Biology)) EUB0001632a CDK1; type: protein-complex assay
Focal adhesion kinase 1 = Focal adhesion kinase 1 (Homo sapiens, UniProt Q05397); assay: Selectivity interaction (ActivX KiNativ screen (kinase selectivity in THP-1 cell lysates)) EUB0000639a PTK2; type: subcellular; conditions: lysate, at 0.01 µM
[1] = target: T1, Ephrin type-A receptor 6 (Homo sapiens) (UniProt Q9UF33); assay: Selectivity interaction (ProQinase) EUB0000171b EPHA6
T1 sequence (whole entry): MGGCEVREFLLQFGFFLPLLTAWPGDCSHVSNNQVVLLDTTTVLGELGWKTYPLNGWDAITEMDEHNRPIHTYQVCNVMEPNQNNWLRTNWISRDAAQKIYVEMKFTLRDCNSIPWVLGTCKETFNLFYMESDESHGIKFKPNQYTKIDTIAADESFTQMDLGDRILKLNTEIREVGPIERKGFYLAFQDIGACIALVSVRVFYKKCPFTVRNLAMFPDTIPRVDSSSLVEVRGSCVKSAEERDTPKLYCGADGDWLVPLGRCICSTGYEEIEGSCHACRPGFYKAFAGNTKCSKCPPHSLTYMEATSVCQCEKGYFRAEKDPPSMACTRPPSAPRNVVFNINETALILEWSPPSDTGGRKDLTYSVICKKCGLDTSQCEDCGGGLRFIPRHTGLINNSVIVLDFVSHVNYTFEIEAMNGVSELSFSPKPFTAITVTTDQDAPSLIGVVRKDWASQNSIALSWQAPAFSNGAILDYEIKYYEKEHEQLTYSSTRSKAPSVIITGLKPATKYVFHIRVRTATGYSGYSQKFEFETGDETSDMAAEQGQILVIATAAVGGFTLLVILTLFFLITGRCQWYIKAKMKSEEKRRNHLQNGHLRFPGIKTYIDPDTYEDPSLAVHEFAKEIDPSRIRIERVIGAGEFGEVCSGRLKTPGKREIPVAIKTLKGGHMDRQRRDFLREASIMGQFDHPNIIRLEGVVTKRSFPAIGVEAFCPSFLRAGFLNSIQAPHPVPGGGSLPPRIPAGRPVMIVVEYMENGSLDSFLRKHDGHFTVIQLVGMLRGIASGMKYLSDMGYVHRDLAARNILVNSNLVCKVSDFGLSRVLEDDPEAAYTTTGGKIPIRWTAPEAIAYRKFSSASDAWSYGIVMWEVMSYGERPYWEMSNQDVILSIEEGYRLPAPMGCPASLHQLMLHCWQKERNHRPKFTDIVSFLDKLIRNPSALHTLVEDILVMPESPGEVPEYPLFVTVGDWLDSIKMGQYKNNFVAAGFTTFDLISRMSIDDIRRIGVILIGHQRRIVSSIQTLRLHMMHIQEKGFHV

[2] = target: Platelet-derived growth factor receptor alpha (Homo sapiens, UniProt P16234); assay: Selectivity interaction (KinomeScan (DiscoverX)) EUB0000695a PDGFRA; conditions: at 100 nM
[3] = target: T2, Receptor-type tyrosine-protein kinase FLT3 (Homo sapiens, UniProt P36888); assay: Selectivity interaction (NanoBRET assay (HEK293T cells)) EUB0001559a FLT3; type: cell-based, HEK-293T
T2 sequence (P36888 whole entry): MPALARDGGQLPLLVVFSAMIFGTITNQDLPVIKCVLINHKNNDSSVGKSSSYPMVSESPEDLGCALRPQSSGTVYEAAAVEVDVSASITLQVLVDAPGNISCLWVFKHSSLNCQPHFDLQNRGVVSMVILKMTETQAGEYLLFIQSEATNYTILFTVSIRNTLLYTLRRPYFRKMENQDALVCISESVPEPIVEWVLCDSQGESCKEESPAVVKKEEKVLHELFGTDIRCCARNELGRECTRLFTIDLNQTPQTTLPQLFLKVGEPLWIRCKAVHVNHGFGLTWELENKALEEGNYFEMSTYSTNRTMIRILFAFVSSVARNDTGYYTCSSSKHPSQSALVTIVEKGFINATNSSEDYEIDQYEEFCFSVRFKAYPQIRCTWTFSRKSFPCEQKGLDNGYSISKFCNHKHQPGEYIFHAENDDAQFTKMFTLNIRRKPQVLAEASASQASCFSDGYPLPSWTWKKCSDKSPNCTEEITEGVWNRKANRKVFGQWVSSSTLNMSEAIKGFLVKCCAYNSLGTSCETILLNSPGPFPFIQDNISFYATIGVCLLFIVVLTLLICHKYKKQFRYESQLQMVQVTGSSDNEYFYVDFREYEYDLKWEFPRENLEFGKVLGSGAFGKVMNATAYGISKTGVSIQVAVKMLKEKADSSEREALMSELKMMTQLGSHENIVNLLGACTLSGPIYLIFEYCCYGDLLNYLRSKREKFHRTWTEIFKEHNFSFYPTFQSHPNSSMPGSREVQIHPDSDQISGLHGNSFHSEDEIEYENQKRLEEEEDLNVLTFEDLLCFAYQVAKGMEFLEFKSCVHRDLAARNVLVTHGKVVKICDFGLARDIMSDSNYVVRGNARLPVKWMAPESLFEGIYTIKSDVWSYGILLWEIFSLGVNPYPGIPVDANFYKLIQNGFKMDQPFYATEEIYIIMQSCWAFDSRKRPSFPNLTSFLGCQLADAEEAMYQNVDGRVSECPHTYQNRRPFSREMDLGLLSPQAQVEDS

[4] = target: Protein kinase C eta type (Homo sapiens) (UniProt P24723); assay: Selectivity interaction (Ambit KINOMEscan and KiNATiv profiling in Jurkat cells) EUB0000090b PRKCH; type: cell-based; conditions: at 1 µM
[5] = target: Serine/threonine-protein kinase 38-like (Homo sapiens) (UniProt Q9Y2H1); conditions: at 10 µM
[6] = target: Wee1-like protein kinase (Homo sapiens) (UniProt P30291); assay: Selectivity interaction (KinomeScan (DiscoverX)) EUB0000618a WEE1; conditions: at 10 µM
Sequence of Wee1-like protein kinase (Homo sapiens) (P30291 whole entry, looked up): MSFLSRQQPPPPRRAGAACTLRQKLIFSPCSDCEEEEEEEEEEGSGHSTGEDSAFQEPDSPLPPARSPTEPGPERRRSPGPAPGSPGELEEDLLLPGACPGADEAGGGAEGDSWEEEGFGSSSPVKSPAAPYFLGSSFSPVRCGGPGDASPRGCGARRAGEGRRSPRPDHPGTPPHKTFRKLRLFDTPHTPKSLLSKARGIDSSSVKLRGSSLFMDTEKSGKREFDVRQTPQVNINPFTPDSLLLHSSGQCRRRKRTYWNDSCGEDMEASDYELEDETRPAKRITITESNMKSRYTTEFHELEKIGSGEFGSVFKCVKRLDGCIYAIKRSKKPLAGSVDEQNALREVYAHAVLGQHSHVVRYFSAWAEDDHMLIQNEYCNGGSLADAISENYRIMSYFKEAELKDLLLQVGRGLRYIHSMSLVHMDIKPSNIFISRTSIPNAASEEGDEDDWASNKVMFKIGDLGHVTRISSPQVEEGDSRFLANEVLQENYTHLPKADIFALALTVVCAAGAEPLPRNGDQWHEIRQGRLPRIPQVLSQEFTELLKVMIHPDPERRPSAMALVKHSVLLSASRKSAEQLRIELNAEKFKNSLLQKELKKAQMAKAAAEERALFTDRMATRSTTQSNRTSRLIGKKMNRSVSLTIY

Sequence of CDK1/Cyclin A (P06493 whole entry): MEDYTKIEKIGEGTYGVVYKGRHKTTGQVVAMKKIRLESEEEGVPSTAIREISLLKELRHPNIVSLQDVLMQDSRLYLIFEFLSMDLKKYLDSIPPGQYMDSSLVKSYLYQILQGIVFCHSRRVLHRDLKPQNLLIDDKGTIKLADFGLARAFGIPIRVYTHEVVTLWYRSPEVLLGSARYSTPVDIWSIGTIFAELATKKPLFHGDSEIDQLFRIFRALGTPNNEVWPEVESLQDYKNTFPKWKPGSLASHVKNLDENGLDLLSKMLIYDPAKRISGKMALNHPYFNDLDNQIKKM
Sequence of CDK1/Cyclin A (P20248 whole entry): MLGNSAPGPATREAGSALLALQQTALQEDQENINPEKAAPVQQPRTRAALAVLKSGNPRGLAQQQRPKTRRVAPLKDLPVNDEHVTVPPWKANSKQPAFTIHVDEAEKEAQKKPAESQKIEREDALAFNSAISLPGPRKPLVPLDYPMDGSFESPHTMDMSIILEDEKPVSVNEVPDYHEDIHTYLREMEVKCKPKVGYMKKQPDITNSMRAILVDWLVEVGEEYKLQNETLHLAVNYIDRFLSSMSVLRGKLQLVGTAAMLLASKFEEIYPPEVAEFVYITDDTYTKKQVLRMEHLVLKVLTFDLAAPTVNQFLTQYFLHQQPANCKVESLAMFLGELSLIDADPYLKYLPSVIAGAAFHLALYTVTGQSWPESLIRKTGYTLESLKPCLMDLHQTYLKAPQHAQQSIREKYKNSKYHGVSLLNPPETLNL
Sequence of CDK1/Cyclin A (P78396 whole entry): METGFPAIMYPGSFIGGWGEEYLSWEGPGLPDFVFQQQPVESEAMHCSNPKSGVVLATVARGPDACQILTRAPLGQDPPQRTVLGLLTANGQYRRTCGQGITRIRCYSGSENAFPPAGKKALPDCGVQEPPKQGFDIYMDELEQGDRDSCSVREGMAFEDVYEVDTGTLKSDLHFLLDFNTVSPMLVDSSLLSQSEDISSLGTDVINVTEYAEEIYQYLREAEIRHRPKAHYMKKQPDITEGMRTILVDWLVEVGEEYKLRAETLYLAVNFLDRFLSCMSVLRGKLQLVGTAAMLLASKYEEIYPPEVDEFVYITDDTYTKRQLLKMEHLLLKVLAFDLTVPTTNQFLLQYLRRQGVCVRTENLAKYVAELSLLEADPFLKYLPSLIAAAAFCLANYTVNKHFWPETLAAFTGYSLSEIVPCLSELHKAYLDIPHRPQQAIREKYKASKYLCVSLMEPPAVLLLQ
Sequence of Protein kinase C eta type (Homo sapiens) (P24723 whole entry): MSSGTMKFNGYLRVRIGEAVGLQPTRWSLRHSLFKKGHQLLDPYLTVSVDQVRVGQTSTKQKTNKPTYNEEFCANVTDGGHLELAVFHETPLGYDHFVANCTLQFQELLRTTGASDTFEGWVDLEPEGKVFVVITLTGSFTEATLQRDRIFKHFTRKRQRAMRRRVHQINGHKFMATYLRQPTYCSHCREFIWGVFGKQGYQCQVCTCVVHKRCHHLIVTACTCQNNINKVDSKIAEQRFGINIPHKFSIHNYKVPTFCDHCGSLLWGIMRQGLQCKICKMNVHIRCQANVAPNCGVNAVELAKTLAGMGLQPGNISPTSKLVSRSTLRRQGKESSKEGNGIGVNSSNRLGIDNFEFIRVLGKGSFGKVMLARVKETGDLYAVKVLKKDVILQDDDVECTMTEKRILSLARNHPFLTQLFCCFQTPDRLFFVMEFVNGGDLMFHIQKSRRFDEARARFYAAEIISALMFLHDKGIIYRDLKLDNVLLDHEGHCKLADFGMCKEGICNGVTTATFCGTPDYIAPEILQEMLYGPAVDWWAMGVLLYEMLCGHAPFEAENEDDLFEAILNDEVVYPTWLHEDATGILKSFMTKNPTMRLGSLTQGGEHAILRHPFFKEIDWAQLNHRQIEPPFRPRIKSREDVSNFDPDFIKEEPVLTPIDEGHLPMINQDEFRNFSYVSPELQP
Sequence of Platelet-derived growth factor receptor alpha (P16234 whole entry): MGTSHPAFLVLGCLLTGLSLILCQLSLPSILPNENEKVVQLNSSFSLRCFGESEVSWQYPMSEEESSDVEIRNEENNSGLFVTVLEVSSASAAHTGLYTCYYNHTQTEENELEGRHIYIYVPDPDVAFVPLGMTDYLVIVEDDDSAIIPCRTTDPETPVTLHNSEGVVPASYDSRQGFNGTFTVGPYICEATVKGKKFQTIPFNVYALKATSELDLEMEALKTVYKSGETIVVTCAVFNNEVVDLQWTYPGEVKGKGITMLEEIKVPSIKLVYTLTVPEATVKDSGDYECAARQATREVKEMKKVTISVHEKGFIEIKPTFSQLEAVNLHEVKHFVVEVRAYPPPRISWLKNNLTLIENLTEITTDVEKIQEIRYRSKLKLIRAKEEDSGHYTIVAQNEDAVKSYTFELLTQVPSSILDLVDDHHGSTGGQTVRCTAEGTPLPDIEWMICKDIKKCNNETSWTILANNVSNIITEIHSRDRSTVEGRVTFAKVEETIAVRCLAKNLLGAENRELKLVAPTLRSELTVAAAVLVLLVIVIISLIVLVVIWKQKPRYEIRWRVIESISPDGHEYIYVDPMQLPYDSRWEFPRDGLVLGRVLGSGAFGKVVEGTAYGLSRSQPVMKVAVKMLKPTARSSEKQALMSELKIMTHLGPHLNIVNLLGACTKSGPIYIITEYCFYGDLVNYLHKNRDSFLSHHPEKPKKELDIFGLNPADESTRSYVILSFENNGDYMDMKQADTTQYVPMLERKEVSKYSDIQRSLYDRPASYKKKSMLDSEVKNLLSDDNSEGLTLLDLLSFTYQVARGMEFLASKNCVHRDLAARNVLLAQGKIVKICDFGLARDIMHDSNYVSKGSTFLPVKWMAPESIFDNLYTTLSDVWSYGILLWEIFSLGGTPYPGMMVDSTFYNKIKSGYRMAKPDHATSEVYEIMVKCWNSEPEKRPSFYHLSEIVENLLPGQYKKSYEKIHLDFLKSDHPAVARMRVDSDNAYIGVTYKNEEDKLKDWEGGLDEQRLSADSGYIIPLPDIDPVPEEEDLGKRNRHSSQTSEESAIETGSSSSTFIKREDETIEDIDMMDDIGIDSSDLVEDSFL
Sequence of Serine/threonine-protein kinase 38-like (Homo sapiens) (Q9Y2H1 2-464 limits assumed): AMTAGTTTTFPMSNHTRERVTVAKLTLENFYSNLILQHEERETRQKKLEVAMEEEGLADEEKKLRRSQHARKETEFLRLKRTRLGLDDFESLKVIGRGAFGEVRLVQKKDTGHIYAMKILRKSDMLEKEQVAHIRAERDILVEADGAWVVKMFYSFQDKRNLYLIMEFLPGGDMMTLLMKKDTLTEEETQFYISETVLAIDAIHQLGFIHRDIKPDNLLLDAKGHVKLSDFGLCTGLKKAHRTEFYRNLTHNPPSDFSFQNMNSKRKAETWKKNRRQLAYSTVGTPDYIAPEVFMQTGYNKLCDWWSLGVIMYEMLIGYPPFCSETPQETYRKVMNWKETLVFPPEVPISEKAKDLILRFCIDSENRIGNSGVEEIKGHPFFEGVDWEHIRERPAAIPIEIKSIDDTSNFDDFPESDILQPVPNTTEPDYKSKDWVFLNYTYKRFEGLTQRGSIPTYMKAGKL

## Cn1cc(-n2cnc3c(NCc4nc5cc(Cl)c(Cl)cc5[nH]4)nc(N4CCOCC4)nc32)cn1
CDK1/Cyclin A
  IC50: > 0.01 mM

## CC[C@@H]1[C@H](F)C(=O)N[C@@H]1COc1nccc2cc(C(N)=O)c(OC)cc12 [ZIMLOVISERTIB]
Focal adhesion kinase 1
  % of inhibition: -47.2%

## C=CC(=O)Nc1cccc(C(=O)Nc2ccc(Nc3cc(-c4[nH]c(SC)nc4C)ccn3)cc2)c1
[1]; at 1 µM
  % of control: 99%
[1]; at 5 µM
  % of control: 100%

## Cc1cc(F)c(C(=O)Nc2cccc(-c3nncn3C(C)C)n2)cc1-n1cnc(C2CC2)c1
[2]
  % of control: 100%

## CN(C(=O)c1cnn2cccnc12)c1cc2c(cc1N1CCOCC1)C(=O)N(C[C@@H](F)C(C)(C)O)C2
[3]
  EC50: 3.6 mM

## CN(C)C/C=C/C(=O)Nc1ccc(C(=O)N2CCCC(Nc3ncc(Cl)c(-c4c[nH]c5ccccc45)n3)C2)cc1 (centres undefined)
[4]
  % of control: 91%

## Cc1cc([C@@H](C)Nc2ccccc2C(=O)O)c2nc(N3CCOCC3)cc(=O)n2c1 [AZD-6482]
[5]
  % of control: 94%

## O[C@H]1CC[C@H](Nc2ncc3nc(Nc4c(F)cc(F)cc4F)n([C@H]4CCOC4)c3n2)CC1
[6]
  % of control: 100%
